Like-named read-outs stand apart in the source and are kept apart here.
Columns and labels:
Assay type in all cases: in vivo
Pyrenophora teres = test: Field tests against plant pathogens; conditions: field test, crop barley
From the text: (§1) Selected compounds were field tested against a variety of plant pathogens. […]

[1] = tested on: melon aphids (Aphis gossypii Glover); test: Mite/insect screen, MA; conditions: percent mortality
Outline: (§2)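 Compounds dissolved in acetone/alcohol (50:50) with TOXIMUL R and S emulsifiers, diluted in water to test concentrations, and sprayed to runoff on both leaf surfaces at 10 psi, then dried 1 h. For armyworm, excised treated leaves were offered to larvae; percent mortality scored after standard exposure periods.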

[2] = tested on: Botrytis cinerea (gray mold); test: Test 1 greenhouse foliar spray screen, gray mold on grape berries; conditions: for GRAY MOLD: disease control rating, spray on grape berries, 400 ppm (+++ at 100 ppm); for pest or weed control at 400 ppm: Botrytis cinerea, foliar, Test 1, spray on grape berries, disease control rating at 400 ppm / 100 ppm
[3] = tested on: Twospotted spider mites (Tetranychus urticae Koch); test: Mite/insect screen, SM
Outline: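 Compounds dissolved in 50:50 acetone/alcohol containing sulfonate/nonionic emulsifier blends, then diluted with water to the indicated concentrations. Leaves sprayed on both surfaces to runoff at 10 psi and dried one hour. Percent mortality scored after standard exposure periods.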

[4] = tested on: Venturia inaequalis (apple scab); test: Test 1 greenhouse foliar spray screen, apple scab on apple seedling; conditions: for APPL SCAB: disease control rating, foliar spray on apple seedling, 400 ppm (+++ at 100 ppm); for pest or weed control at 400 ppm: Venturia inaequalis, Test 1, foliar spray on apple seedling, disease control rating at 400 ppm / 100 ppm, read-out: APPL SCAB
[5] = tested on: Erysiphe graminis tritici (powdery mildew); test: Test 1 greenhouse foliar spray screen, powdery mildew on wheat
[6] = tested on: Pyricularia oryzae (rice blast); test: whole plant or invertebrate; conditions: for activity against rice blast: summary statement in the description
corn rootworm = test: Mite/insect screen, CRW; conditions: percent mortality, read-out: CRW RESULTS %
Outline: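 Compounds dissolved in 50:50 acetone/alcohol with TOXIMUL R and S emulsifiers (23 and 13 g/L), then diluted in water to the stated test concentrations. Percent mortality of corn rootworm scored after standard exposure periods.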

[7] = tested on: southern armyworm (Spodopetra eridania Cramer); test: Mite/insect screen, SAW; conditions: percent mortality
Outline: as §2

[8] = tested on: Puccinia recondita tritici (leaf rust); test: Test 1 greenhouse foliar spray screen, leaf rust on wheat
[9] = tested on: Pseudoperonospora cubensis (downy mildew); test: Test 1 greenhouse foliar spray screen, downy mildew on squash; conditions: for activity against downy mildew: summary statement in the description
Phytophthora infestans = conditions: field test
[10] = tested on: Septoria tritici (leaf blotch); test: Test 1 greenhouse foliar spray screen, leaf blotch on wheat; conditions: for LEAF BLOT: disease control rating, foliar spray on wheat, 400 ppm (+++ at 100 ppm); for pest or weed control at 400 ppm: Zymoseptoria tritici, Test 1, foliar spray on wheat, disease control rating at 400 ppm / 100 ppm, read-out: LEAF BLOT
Sphaerotheca fuliginea = test: Field tests against plant pathogens; conditions: field test, crop cucumber
From the text: as §1

[11] = tested on: Pseudocercosporella herpotrichoides; test: Field tests against plant pathogens; conditions: field test, crop wheat
From the text: as §1

[12] = tested on: Erysiphe graminis tritici; test: Field tests against plant pathogens; conditions: field test, crop wheat
From the text: as §1

Rhynchosporium secalis = test: Field tests against plant pathogens; conditions: field test, crop barley
From the text: as §1

[13] = tested on: Cercospora beticola (leaf spot); test: Test 1 greenhouse foliar spray screen, leaf spot on sugar beet; conditions: for LEAF SPOT: disease control rating, foliar spray on sugar beet, 400 ppm (+++ at 100 ppm); for pest or weed control at 400 ppm: Cercospora beticola, Test 1, foliar spray on sugar beet, disease control rating at 400 ppm / 100 ppm
Plasmopara viticola = test: Field tests against plant pathogens; conditions: field test, crop grape
From the text: as §1

plant pathogens = test: Fungicidal efficacy against a broad spectrum of plant pathogens (summary of screen); conditions: summary statement in the description
[14] = Aphis gossypii, SAW, SM & MA RATE 200 PPM, read-out: MA RESULTS %
[15] = Tetranychus urticae, percent mortality, SAW, SM & MA RATE 200 PPM, read-out: SM RESULTS %
[16] = disease control rating, foliar spray on wheat, 400 ppm (+++ at 100 ppm)
[17] = disease control rating, foliar spray on rice, 400 ppm (+++ at 100 ppm)
[18] = Spodoptera eridania, SAW, SM & MA RATE 200 PPM, read-out: SAW RESULTS %
[19] = disease control rating, foliar spray on squash, 400 ppm (+++ at 100 ppm)
[20] = Aphis gossypii, foliar, rate 200 ppm, foliar spray on squash, read-out: MA RESULTS %
[21] = Tetranychus urticae, foliar, percent mortality, rate 200 ppm, foliar spray on squash, read-out: SM RESULTS %
[22] = Spodoptera eridania, foliar, rate 200 ppm, foliar spray on squash, read-out: SAW RESULTS %
[23] = rate 400 ppm, foliar spray on squash
[24] = Test 1, foliar spray on wheat, disease control rating at 400 ppm / 100 ppm

Compound: c1ccc(CCNc2ccnc3ccccc23)cc1 [Example 2, N-(2-phenylethyl)-4-quinolinamine]
- pathogens against which compounds of the invention showed activity (Pyrenophora teres): Pyrenophora teres
- mortality at 200 ppm [1, 14]: 0%
- GRAY MOLD [2]: - (0-19% control at 400 ppm)
- mortality at 200 ppm [3, 15]: 0%
- APPL SCAB [4]: - (0-19% control at 400 ppm)
- POWD MDEW [5, 16]: - (0-19% control at 400 ppm)
- RICE BLAST [6, 17]: - (0-19% control at 400 ppm)
- mortality at 12 ppm (corn rootworm; CRW RATE 12.00 PPM): 0%
- mortality at 200 ppm [7, 18]: 0%
- LEAF RUST [8, 16]: - (0-19% control at 400 ppm)
- DOWN MDEW [9, 19]: +++ (90-100% control at 100 ppm)
- pathogens against which compounds of the invention showed activity (Phytophthora infestans; crop potato): Phytophthora infestans
- pathogens against which compounds of the invention showed activity (Phytophthora infestans; crop tomato): Phytophthora infestans
- LEAF BLOT [10]: - (0-19% control at 400 ppm)

Compound: CC(=O)N(CCc1ccc(Cl)cc1)c1ccnc2c(F)cccc12 [Example 10, N-[2-(4-chlorophenyl)ethyl]-N-(8-fluoro-4-quinolinyl)acetamide]
- pathogens against which compounds of the invention showed activity (Sphaerotheca fuliginea): Sphaerotheca fuliginea
- pathogens against which compounds of the invention showed activity (Pyrenophora teres): Pyrenophora teres
- pathogens against which compounds of the invention showed activity [11]: Pseudocercosporella herpotrichoides
- pathogens against which compounds of the invention showed activity [12]: Erysiphe graminis tritici
- pathogens against which compounds of the invention showed activity (Rhynchosporium secalis): Rhynchosporium secalis
- LEAF SPOT [13]: +++ (90-100% control at 100 ppm)
- mortality at 200 ppm [1, 14]: 0%
- mortality at 400 ppm ([1]; Aphis gossypii, SAW, SM & MA RATE 400 PPM, read-out: MA RESULTS %): 0%
- GRAY MOLD [2]: - (0-19% control at 400 ppm)
- mortality at 200 ppm [3, 15]: 0%
- mortality at 400 ppm ([3]; Tetranychus urticae, percent mortality, SAW, SM & MA RATE 400 PPM, read-out: SM RESULTS %): 0%
- APPL SCAB [4]: - (0-19% control at 400 ppm)
- POWD MDEW [5, 16]: ++ (90-100% control at 400 ppm)
- RICE BLAST [6, 17]: +++ (90-100% control at 100 ppm)
- activity against rice blast [6]: particularly excellent activity
- mortality at 12 ppm (corn rootworm; CRW RATE 12.00 PPM): 0%
- mortality at 24 ppm (corn rootworm; CRW RATE 24.00 PPM): 0%
- mortality at 200 ppm [7, 18]: 0%
- mortality at 400 ppm ([7]; Spodoptera eridania, SAW, SM & MA RATE 400 PPM, read-out: SAW RESULTS %): 0%
- LEAF RUST [8, 16]: +++ (90-100% control at 100 ppm)
- DOWN MDEW [9, 19]: ++ (90-100% control at 400 ppm)
- LEAF BLOT [10]: +++ (90-100% control at 100 ppm)

Compound: Fc1cccc2c(NCCc3ccccc3C(F)(F)F)ccnc12 [Example 97, 8-fluoro-N-[2-[2-(trifluoromethyl)phenyl]ethyl]-4-quinolinamine]
- pathogens against which compounds of the invention showed activity (Plasmopara viticola): Plasmopara viticola
- LEAF SPOT [13]: +++ (90-100% control at 100 ppm)
- mortality at 200 ppm [1, 14]: 0%
- GRAY MOLD [2]: - (0-19% control at 400 ppm)
- mortality at 200 ppm [3, 15]: 0%
- APPL SCAB [4]: - (0-19% control at 400 ppm)
- POWD MDEW [5, 16]: + (20-89% control at 400 ppm)
- RICE BLAST [6, 17]: +++ (90-100% control at 100 ppm)
- mortality at 12 ppm (corn rootworm; CRW RATE 12.00 PPM): 0%
- mortality at 200 ppm [7, 18]: 0%
- LEAF RUST [8, 16]: +++ (90-100% control at 100 ppm)
- DOWN MDEW [9, 19]: +++ (90-100% control at 100 ppm)
- activity against downy mildew [9]: particularly excellent activity
- LEAF BLOT [10]: +++ (90-100% control at 100 ppm)

Compound: Fc1cccc2c(NCCc3cccs3)ccnc12 [Example 173, 8-fluoro-N-[2-(2-thienyl)ethyl]-4-quinolinamine]
- pathogens against which compounds of the invention showed activity (Plasmopara viticola): Plasmopara viticola
- LEAF SPOT [13]: +++ (90-100% control at 100 ppm)
- mortality at 200 ppm [1, 20]: 0%
- GRAY MOLD [2]: - (0-19% control at 400 ppm)
- mortality at 200 ppm [3, 21]: 0%
- APPL SCAB [4]: - (0-19% control at 400 ppm)
- POWD MDEW [5, 16]: + (20-89% control at 400 ppm)
- RICE BLAST [6, 17]: + (20-89% control at 400 ppm)
- mortality at 12 ppm (corn rootworm; CRW rate 12.00 ppm): 0%
- mortality at 200 ppm [7, 22]: 0%
- LEAF RUST [8, 16]: ++ (90-100% control at 400 ppm)
- DOWN MDEW [9, 19]: +++ (90-100% control at 100 ppm)
- activity against downy mildew [9]: particularly excellent activity
- LEAF BLOT [10]: + (20-89% control at 400 ppm)

Compound: Fc1cccc2c(OCCc3ccc(-c4ccccc4)cc3)ccnc12 [Example 200]
- pathogens against which compounds of the invention showed activity (Sphaerotheca fuliginea): Sphaerotheca fuliginea
- pathogens against which compounds of the invention showed activity (Pyrenophora teres): Pyrenophora teres
- pathogens against which compounds of the invention showed activity [11]: Pseudocercosporella herpotrichoides
- pathogens against which compounds of the invention showed activity [12]: Erysiphe graminis tritici
- pathogens against which compounds of the invention showed activity (Rhynchosporium secalis): Rhynchosporium secalis
- pest or weed control at 400 ppm [13]: 20 to 89%
- MA RESULTS % ([1]; rate 200 ppm, foliar spray on squash): 100%
- MA RESULTS % [1, 23]: 100%
- pest or weed control at 400 ppm [2]: 0 to 19%
- SM RESULTS % ([3]; percent mortality, rate 200 ppm, foliar spray on squash): 100%
- SM RESULTS % ([3]; percent mortality, rate 400 ppm, foliar spray on squash): 100%
- activity as miticides ([3]; summary statement in the description): particularly excellent activity
- pest or weed control at 400 ppm [4]: 20 to 89%
- POWD MDEW [5, 24]: +++ (90-100% control at 100 ppm)
- RICE BLAST ([6]; Test 1, foliar spray on rice, disease control rating at 400 ppm / 100 ppm): +++ (90-100% control at 100 ppm)
- activity against rice blast [6]: particularly excellent activity
- mortality at 12 ppm (corn rootworm; CRW rate 12.00 ppm): 0%
- mortality at 24 ppm (corn rootworm; CRW rate 24.00 ppm): 0%
- mortality at 200 ppm [7, 22]: 0%
- SAW RESULTS % [7, 23]: 50%
- LEAF RUST [8, 24]: +++ (90-100% control at 100 ppm)
- DOWN MDEW ([9]; Test 1, foliar spray on squash, disease control rating at 400 ppm / 100 ppm): + (20-89% control at 400 ppm)
- pest or weed control at 400 ppm [10]: 90 to 100%

Compound: Fc1cccc2c(OCCc3ccccc3)ccnc12 [Example 219, 8-fluoro-4-(2-phenylethoxy)quinoline]
- pathogens against which compounds of the invention showed activity (Sphaerotheca fuliginea): Sphaerotheca fuliginea
- pathogens against which compounds of the invention showed activity (Pyrenophora teres): Pyrenophora teres
- pathogens against which compounds of the invention showed activity [11]: Pseudocercosporella herpotrichoides
- pathogens against which compounds of the invention showed activity [12]: Erysiphe graminis tritici
- pathogens against which compounds of the invention showed activity (Rhynchosporium secalis): Rhynchosporium secalis
- pest or weed control at 400 ppm [13]: 20 to 89%
- activity against a broad spectrum of plant pathogens (plant pathogens): particularly excellent activity
- mortality at 200 ppm [1, 20]: 0%
- pest or weed control at 400 ppm [2]: 0 to 19%
- mortality at 200 ppm [3, 21]: 0%
- pest or weed control at 400 ppm [4]: 20 to 89%
- pest or weed control at 400 ppm ([5]; Blumeria graminis, foliar, Test 1, foliar spray on wheat, disease control rating at 400 ppm / 100 ppm, read-out: POWD MDEW): 90 to 100%
- pest or weed control at 400 ppm ([6]; Pyricularia oryzae, foliar, read-out: RICE BLAST, Test 1, foliar spray on rice, disease control rating at 400 ppm / 100 ppm): 90 to 100%
- mortality at 12 ppm (corn rootworm; CRW rate 12.00 ppm): 0%
- mortality at 200 ppm [7, 22]: 0%
- pest or weed control at 400 ppm ([8]; Puccinia recondita, foliar, Test 1, foliar spray on wheat, disease control rating at 400 ppm / 100 ppm): 90 to 100%
- pest or weed control at 400 ppm ([9]; Pseudoperonospora cubensis, foliar, Test 1, foliar spray on squash, disease control rating at 400 ppm / 100 ppm, read-out: DOWN MDEW): 90 to 100%
- pest or weed control at 400 ppm [10]: 20 to 89%
